Source: article PMC8496750, “Identification of the organic anion transporting polypeptides responsible for the hepatic uptake of the major metabolite of epyrifenacil, S‐3100‐CA, in mice” (Pharmacology Research & Perspectives, 2021)

Key:
Details in all cases: inhibitor at 100 μM
mouse Oatp1b2 = target: T1, mouse Oatp1b2 (Mus musculus, UniProt Q9JJL3); test: Inhibition of S‐3100‐CA uptake by OATP inhibitors, mouse Oatp1b2; format: in vitro ADME; set-up: expressed in transfected cells; host or cells: 293FT cells
T1 sequence (Q9JJL3 1-689): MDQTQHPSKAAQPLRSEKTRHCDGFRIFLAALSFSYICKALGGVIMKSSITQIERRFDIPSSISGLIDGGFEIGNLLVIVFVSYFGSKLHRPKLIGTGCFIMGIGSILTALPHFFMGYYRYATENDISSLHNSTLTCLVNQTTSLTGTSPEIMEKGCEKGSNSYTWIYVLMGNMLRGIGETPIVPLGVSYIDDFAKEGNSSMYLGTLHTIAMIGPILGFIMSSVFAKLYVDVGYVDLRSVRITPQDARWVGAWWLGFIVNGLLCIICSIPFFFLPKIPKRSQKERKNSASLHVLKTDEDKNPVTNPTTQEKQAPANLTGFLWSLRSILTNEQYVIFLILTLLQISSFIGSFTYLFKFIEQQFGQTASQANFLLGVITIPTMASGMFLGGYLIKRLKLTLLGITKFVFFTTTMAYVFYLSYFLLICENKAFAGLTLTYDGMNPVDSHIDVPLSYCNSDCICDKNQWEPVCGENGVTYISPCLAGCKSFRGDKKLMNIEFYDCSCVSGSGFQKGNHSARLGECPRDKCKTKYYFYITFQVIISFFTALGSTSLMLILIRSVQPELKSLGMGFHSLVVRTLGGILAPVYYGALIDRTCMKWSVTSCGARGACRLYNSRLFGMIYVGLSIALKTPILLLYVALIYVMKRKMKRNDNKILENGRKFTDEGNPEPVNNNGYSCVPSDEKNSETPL
Procedure: 293FT cells were purchased from Thermo Fisher Scientific, Inc.. The cells were grown in Dulbecco's modified Eagle medium (supplemented with 4.5 g/L glucose and 2 mM L‐glutamine) at 37°C, 5% CO2, and 95% humidity. The cells were passaged 3 times per week by harvesting cells using trypsin and plating at a density of 1.0 × 10^4 cells/cm^2 in a 10 cm cell culture plate for maintenance culture. The 293FT cells were detached using trypsin and re‐seeded at a density of 2.5 × 10^4 cells/cm^2 in BioCoat™ Collagen I 6‐well plates (Corning Inc.) for transfection and then treated with 1.2 μg of plasmid vector and 3.2 μl of Lipofectamine™ 2000 Transfection Reagent (Thermo Fisher Scientific, Inc.) according to the manufacturer's instructions. After a 3‐h treatment, the transfection medium was replaced with a fresh cell culture medium and incubated at 37°C with 95% humidity and 5% CO2 until ready for the assay.
Transport experiments were conducted approximately 24 h post‐transfection. […] From the lysate, 1.0 ml was transferred to a vial containing 10 ml of Emulsifier Scintillator Plus to measure the radioactivity in the LSC. The protein concentration of the cell lysate was also measured using a Pierce™ BCA Protein Assay Kit (Thermo Fisher Scientific, Inc.), which was used to normalize, according to the cell number, the radioactivity in the cell lysate extract. […]

mouse Oatp1a4 = target: T2, mouse Oatp1a4 (Mus musculus, UniProt Q9EP96)
T2 sequence (Q9EP96 1-670): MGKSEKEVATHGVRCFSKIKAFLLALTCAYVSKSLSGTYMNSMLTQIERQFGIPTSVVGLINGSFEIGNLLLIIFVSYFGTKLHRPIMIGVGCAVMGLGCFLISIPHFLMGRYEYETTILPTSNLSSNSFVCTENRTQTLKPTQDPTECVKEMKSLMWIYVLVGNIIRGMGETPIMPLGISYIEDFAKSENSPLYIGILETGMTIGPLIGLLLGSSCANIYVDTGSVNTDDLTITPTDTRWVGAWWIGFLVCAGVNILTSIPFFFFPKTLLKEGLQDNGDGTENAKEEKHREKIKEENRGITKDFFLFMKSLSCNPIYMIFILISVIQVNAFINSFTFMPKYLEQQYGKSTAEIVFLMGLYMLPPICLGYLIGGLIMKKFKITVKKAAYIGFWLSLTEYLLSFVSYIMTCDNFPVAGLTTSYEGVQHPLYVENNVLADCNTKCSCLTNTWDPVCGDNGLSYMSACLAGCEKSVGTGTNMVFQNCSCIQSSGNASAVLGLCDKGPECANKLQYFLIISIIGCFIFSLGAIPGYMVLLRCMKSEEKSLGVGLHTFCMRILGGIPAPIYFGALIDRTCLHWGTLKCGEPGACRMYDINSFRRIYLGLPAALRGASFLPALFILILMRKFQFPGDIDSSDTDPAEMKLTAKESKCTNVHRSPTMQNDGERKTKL
Procedure: (§1) Transport experiments were conducted approximately 24 h post‐transfection. The experiments were initiated by aspirating culture medium and addition of pre‐warmed radiolabeled substrate solution (final 1.0% of acetonitrile or 0.9% of ethanol in phosphate‐buffered saline (PBS[−])) to each well. After a 10‐min incubation, cells were washed twice with 1 ml of ice‐cold PBS(−) and lysed with 700 μl of 1.0 M NaOH for 3 h or more at room temperature. The lysate was transferred to a 1.5‐ml tube, and neutralized with 350 μl of 2.0 M HCl and 350 μl of 2.0% sodium dodecyl sulfate (SDS) solution. From the lysate, 1.0 ml was transferred to a vial containing 10 ml of Emulsifier Scintillator Plus to measure the radioactivity in the LSC. The protein concentration of the cell lysate was also measured using a Pierce™ BCA Protein Assay Kit (Thermo Fisher Scientific, Inc.), which was used to normalize, according to the cell number, the radioactivity in the cell lysate extract. The protein assay was performed in duplicate. Each sample type was assayed in triplicate wells, and each run was performed twice. […] Each sample type was assayed in triplicate wells.

mouse Oatp1a1 = target: T3, mouse Oatp1a1 (Mus musculus, UniProt Q9QXZ6)
T3 sequence (Q9QXZ6 1-670): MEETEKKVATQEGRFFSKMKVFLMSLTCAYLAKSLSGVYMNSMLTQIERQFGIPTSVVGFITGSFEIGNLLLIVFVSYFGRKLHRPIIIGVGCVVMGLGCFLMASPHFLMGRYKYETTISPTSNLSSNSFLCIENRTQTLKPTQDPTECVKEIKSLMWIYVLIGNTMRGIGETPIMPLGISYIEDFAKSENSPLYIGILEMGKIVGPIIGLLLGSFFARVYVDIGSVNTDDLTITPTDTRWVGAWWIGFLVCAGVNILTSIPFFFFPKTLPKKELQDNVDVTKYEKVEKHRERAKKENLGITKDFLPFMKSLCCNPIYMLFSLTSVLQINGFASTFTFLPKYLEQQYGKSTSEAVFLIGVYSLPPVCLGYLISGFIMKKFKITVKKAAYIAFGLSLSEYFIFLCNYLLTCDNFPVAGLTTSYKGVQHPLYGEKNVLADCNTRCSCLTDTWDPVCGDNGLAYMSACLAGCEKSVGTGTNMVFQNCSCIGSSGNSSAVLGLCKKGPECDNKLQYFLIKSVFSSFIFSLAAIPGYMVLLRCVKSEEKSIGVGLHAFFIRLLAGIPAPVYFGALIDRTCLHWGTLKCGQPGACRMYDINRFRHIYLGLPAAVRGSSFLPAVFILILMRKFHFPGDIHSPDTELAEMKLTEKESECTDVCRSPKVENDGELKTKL
Procedure: as §1

Measured: Uptake of S‐3100‐CA, % of that by vehicle‐treated cells

CO[C@H]1/C=C/O[C@@]2(C)Oc3c(C)c(O)c4c(O)c(c(/C=N/N5CCN(C)CC5)c(O)c4c3C2=O)NC(=O)/C(C)=C\C=C\[C@H](C)[C@H](O)[C@@H](C)[C@@H](O)[C@@H](C)[C@H](OC(C)=O)[C@@H]1C [RIF, Rifampicin]
less than 40%: all assays above
